{
  "source": "patent US20070020334A1",
  "about": "“Benzimidazole formulation” (priority 2005, published 2007)",
  "key": {"[1]": {"conditions": "cited from earlier work; for pKa2 / pKa3 / pKa: approximate; for pKa: pKa of the acid"}, "[2]": {"assay": "Particle size by laser light scattering (Malvern)", "assay_type": "physicochemical", "conditions": "raw material of Table 7", "procedure": "Samples have been dried for minimum 12 hours at 40° C. prior to the measurements."}},
  "note": "Like-named read-outs stand apart in the source and are kept apart here.",
  "data": [
    {"smiles": "N=C(N)NCCC[C@H](N)C(=O)O", "note": "[Arginine]", "values": [
      {"measurement": "pH", "setting": "[1]; 100 g/L H2O", "value": "pH≈11.4"},
      {"measurement": "pKa2", "setting": "[1]", "value": "pKa2: 9.1"},
      {"measurement": "pKa3", "setting": "[1]", "value": "pKa3: 13.2"}
    ]},
    {"smiles": "O=C([O-])[O-].[Ca+2]", "note": "[Calcium carbonate]", "values": [
      {"measurement": "pKa", "setting": "[1]", "value": 10.3}
    ]},
    {"smiles": "O=C([O-])[O-].[Na+].[Na+]", "note": "[DiSodium carbonate]", "values": [
      {"measurement": "pKa", "setting": "[1]", "value": 10.3}
    ]},
    {"smiles": "N[C@@H](Cc1c[nH]cn1)C(=O)O", "note": "[Histidine]", "values": [
      {"measurement": "pH", "setting": "[1]; 10 g/L H2O", "value": "pH≈7.7"},
      {"measurement": "pKa3", "setting": "[1]", "value": "pKa3: 9.0"}
    ]},
    {"smiles": "NCCCC[C@H](N)C(=O)O", "note": "[Lysine]", "values": [
      {"measurement": "pKa2", "setting": "[1]", "value": "pKa2: 8.9"}
    ]},
    {"smiles": "COc1ccnc(C[S+]([O-])c2nc3ccc(OC(F)F)cc3[nH]2)c1OC", "note": "(stereo not drawn) [Pantoprazole sodium sesquihydrate]", "values": [
      {"measurement": "D(v; 0.5)", "setting": "[2]", "value": 7, "unit": "μm"}
    ]}
  ]
}
